Measured values: publication PMC9984387, “The dynamic nature of netrin-1 and the structural basis for glycosaminoglycan fragment-induced filament formation” (Nature Communications, 2023)

Molecular target: NET1ΔC (Gallus gallus, UniProt Q90922)
Assay: X-ray crystal structure (native crystals soaked in SOS)
Format: binding
Conditions: 10 mM SOS soak 5-7 days; crystals from PEG 8000, CHES pH 9.5; one SOS per monomer, two sites SOSab and SOScd in LE-2 subdomain

## O=S(=O)(O)OC[C@H]1O[C@@](COS(=O)(=O)O)(O[C@H]2O[C@H](COS(=O)(=O)O)[C@@H](OS(=O)(=O)O)[C@H](OS(=O)(=O)O)[C@H]2OS(=O)(=O)O)[C@@H](OS(=O)(=O)O)[C@@H]1OS(=O)(=O)O [SOS, sucrose-octasulfate]
  X-ray crystal structure (native crystals soaked in SOS): in complex with one sucrose-octasulfate molecule bound per monomer
